From patent publication US6423737B1, “Benzamidoxime prodrugs as antipneumocystic agents” (The University of North Carolina at Chapel Hill, priority 1995, dated 2002)

How the values were obtained:
BRL 3A hepatocytes = test: Metabolism in intact cultured cells (HPLC of culture supernatants); format: in vitro ADME; conditions: 10 μM substrate, 24 hours, 37EC; extracellular medium assayed; FIG. 4
Method: Metabolic experiments with intact cultured cells were performed using the BRL 3A hepatocyte line, obtained from the UNC-Chapel Hill Lineberger Tissue Culture Facility. Cells were routinely cultured in Costar (Cambridge, Mass.) 25 cm^2 of tissue culture flasks at 37EC under moist 5% CO2 and 95% air in Ham's F-12 medium (Gibco, Gaithersburg, Md.) containing 5% fetal bovine serum (HyClone Laboratories Inc., Logan, Utah). Confluent cultures were treated with 0.25% trypsin solution (Sigma Chemical Co., ST. Louis Mo.), then approximately 2×10^5 cells/well subcultured into Costar 6-well tissue culture chambers and the cells allowed to grow to confluency. Ten mL fresh medium was added to each culture well and incubations were started by adding 100 μL amidoxime solution (prepared in sterile water) to a final concentration of 10 μM. Cell cultures were incubated at 37EC under moist 5% CO2 and 95% air for 24 hours, then aliquots of culture supernatants extracted and assayed for metabolites as described below. Similar metabolic experiments were performed with cultured J774 A.1 mouse monocyte-macrophage cells cultured in DMEM F-12 medium containing 10% fetal bovine serum and H9c2 rat heart myoblast cells cultured in DMEM H medium containing 10% fetal bovine serum.
(§1) Samples were extracted using solid phase extraction and assayed using high performance liquid chromatography (HPLC) by methods similar to those previously described in Berger et al. (1992) and Berger et al., (1991), supra. Briefly, samples spiked with 2,5-bis[4-(N-isopropylamidino)phenyl]furan dihydrochloride as the internal standard (IS) were extracted over activated C18 Bond Elut cartridges (Varian Associates, Sunnydale, Calif.), washed with water, 100% acetonitrile, then eluted with 75% acetonitrile/25% water containing 15 mm triethylamine and 35 mM acetic acid. The diamidoxime substrates elute in the 100% acetonitrile phase, while mono-amidine and diamidine products elute in the acetonitrile/water mixture containing triethylamine and acetic acid. Elutes were evaporated to dryness at 40EC under a gentle stream of nitrogen and resuspended in HPLC grade water.
Compounds were resolved using a Hewlett-Packard (Avondale, Pa.) model 1090 HPLC equipped with a HP 1050 variable wavelength detector set at 265 nm, a 4.6×250 mm Zorbax RX diisopropyl C8 column (Mac-Mod, Chadd's Ford, PA) maintained at 40EC and a Vectra 486/66U computer with HP Chemstations software. […] Quantities of metabolites formed were calculated, using peak area rations of authentic standard, from standard addition curves generated by spiking standards into tissue homogenates or tissue culture medium.

Pneumocystis carinii [1] = test: Anti-P. carinii activity in immunosuppressed rat model (lung cyst counts); format: in vivo, Sprague-Dawley rats; conditions: for anti-P. carinii activity / mean cyst counts when given intravenously (in words): Formula I amidoximes, intravenous; for % saline, ORAL DOSING / % saline, IV DOSING: Table 2; for % saline, ORAL DOSING: oral by gavage daily for 14 days @33 μmol/kg body weight; for % saline, IV DOSING: tail vein injection daily for 14 days at 22 mg/kg body weight; for anti-P. carinii activity when given orally (in words): Formula I series, orally by gavage once daily for 14 days
Method: The activity of the compounds of Formula I against P. carinii was carried out according to an established method. See Tidwell, R. R., et al., J. Protozool. […] Agents Chemother. […] Agents Chemother. […] Briefly, male Sprague-Dawley rats (barrier raised, not certified virus-free) weighing 150-200 g each, were obtained (Hilltop Laboratories, Scottsdale, Pa.). Immediately upon arrival, the animals were caged individually and begun on a low protein (8%) diet and on drinking water containing tetracycline (0.5 mg/mL) and dexamethasone (1.0 μ/mL). This regimen was continued for eight weeks. At the beginning of the seventh week, animals were divided into groups of 8 or more, and the test compounds were administered for 14 days. Saline and pentamidine-treated groups were included as controls.
Animals were sacrificed at the end of the eighth week by chloroform inhalation. The left lung was weighed, ground through a No. 60 wire mesh screen, and suspended 1:10 (wt/vol) in 10 mM β-mercaptoethanol-Hanks' balanced salts solution (HBSS) without cations. Slides were prepared by spotting 5 μL of lung homogenate diluted 1:10 in HBSS with β-mercaptoethanol and allowed to air dry. The slides were stained with cresyl violet, and the cysts were counted by a blinded protocol. The number of cysts per gram of original lung tissue was calculated, and the groups were reported as the percentages of saline-treated controls.
The anti-P. carinii value for each compound is expressed as the percent of cysts in the treatment group as compared to the saline control group. Values are also compared to a positive control group consisting of animals treated intravenously with pentamidine.

[2] = Acute toxicity of single doses in normal rats; format: in vivo; conditions: for time after injection to recovery: single IV 80 μmol/kg; for overt toxic responses after single oral doses: single oral doses as high as 160 μmol/kg; for overt acute adverse reactions following single intravenous injections, compared to the bis-benzamidines: single tail vein injection; for time after injection to recovery / persistence of symptoms: single IV 160 μmol/kg
[3] = In vitro metabolism by rat tissue homogenate 9000×g supernatants (HPLC); format: in vitro ADME; conditions: for metabolism by rat liver homogenate 9000×g supernatants: 167 μM substrate plus cofactor solution, 37EC, 10 minutes, FIG. 1
Method: In vitro metabolism of diamidoximes 1, 3, 5, and 7 by rat liver homogenate 9000×g supernatants, post-mitochondrial 105,000×g supernatants or microsomal fractions were performed as previously described in B. J. Berger et al., Antimicrob. Agents and Chemotherapy 36, 1825-1831 (1992); B. J. Berger et al., J. Pharmacol. Experimental Therapeutics 256, 883-89 (1991). Briefly, adult male Sprague-Dawley rats, barrier raised, (Hilltop Laboratories, Scottsdale, Pa.) animals were given water and rat chow (Agway, Syracuse, N.Y.) ad libitum. The rats were euthanized by decapitation, the livers removed immediately, rinsed with 50 mM potassium phosphate buffer, pH 7.4, and placed on ice. All subsequent steps were performed at 4EC. The livers were minced, homogenized, and 9000×g supernatants, 105,000×g or 105,000×g microsomal pellets prepared. Each fraction was assayed for protein content as described in M. M. Bradford, Anal. Biochem. 72, 248-254 (1976) and stored at −80EC. Fractions from the rat kidneys, lungs, hearts and brains were prepared similarly.
Reaction mixtures consisted of 1.5 mL 50 mM potassium phosphate buffer, pH 7.4, 0.5 mL cofactor solution (2 mg/mL NADPH, 1.6 mg/mL MgCl2, 1.04 mg/mL glucose-6-phosphate and 2 units/mL glucose-6-phosphate dehydrogenase in 50 mM potassium phosphate buffer pH 7.4), 0.5 mL tissue homogenate and 0.5 mL of the appropriate diamidoxime substrate at a concentration of 167 μM. Reactions were started by adding substrate, then mixtures were incubated at 37EC in a shaking water bath for times shown in the figures. Reactions were terminated by extracting over C18 cartridges and assaying as described below.
as §1
Compounds were resolved using a Hewlett-Packard (Avondale, Pa.) model 1090 HPLC equipped with a HP 1050 variable wavelength detector set at 265 nm, a 4.6×250 mm Zorbax RX diisopropyl C8 column (Mac-Mod, Chadd's Ford, PA) maintained at 40EC and a Vectra 486/66U computer with HP Chemstations software. The mobile phase consisted of 15 mM triethylamine and 35 mM acetic acid in HPLC grade water for pump A, and 15 mM triethylamine and 35 mM acetic acid in 75% acetonitrile in water for pump B. The solvent flow rate was 1.5 mL/min, and the solvent gradient ran from 0% B to 25% B at 22 min, to 40% B at 25 min, then 90% B at 35 min. All solvents and reagents used for the assays were HPLC grade. Quantities of metabolites formed were calculated, using peak area rations of authentic standard, from standard addition curves generated by spiking standards into tissue homogenates or tissue culture medium.

[4] = Subjective scale of toxicity and tolerance during treatment in the immunosuppressed rat model; conditions: subjective scale
Source text: ^b subjective scale of toxicity. […] In general, the larger the value the more severe the toxicity, with values greater than 2 indicating the death of some animals

Pneumocystis carinii [5] = conditions: immunosuppressed rat model, D. W. Boykin et al., J. Med. Chem. 38, 912 (1995); cited from earlier work

| SMILES | metabolism in intact BRL 3A hepatocytes (BRL 3A hepatocytes) | anti-P. carinii activity / mean cyst counts when given intravenously (in words) (Pneumocystis carinii [1]) | % saline, ORAL DOSING (Pneumocystis carinii [1]) [% saline] | % saline, IV DOSING (Pneumocystis carinii [1]) [% saline] | observed acute toxicity after single intravenous injection ([2]; normal rats, 80 μmol/kg) | time after injection to recovery ([2]; normal rats) [min] | overt toxic responses after single oral doses ([2]; normal rats) | overt acute adverse reactions following single intravenous injections, compared to the bis-benzamidines ([2]; normal rats) | metabolism by rat liver homogenate 9000×g supernatants [3] | anti-P. carinii activity when given orally (in words) (Pneumocystis carinii [1]) | observed acute toxicity after single intravenous injection ([2]; normal rats, 160 μmol/kg) | time after injection to recovery / persistence of symptoms ([2]; normal rats) | other results |
| --- | --- | --- | --- | --- | --- | --- | --- | --- | --- | --- | --- | --- | --- |
| NC(=NO)c1ccc(OCCCCCOc2ccc(C(N)=NO)cc2)cc1.O=C(O)/C=C\C(=O)O.O=C(O)/C=C\C(=O)O [Compound 1, 1,5-bis(4′-(N-hydroxyamidino)phenoxy)pentanedi-hemimaleinate] | metabolized predominantly to the corresponding diamidine | significantly reduced compared to saline controls | 19.27 | 0.15 | Minor toxic responses, including barely observable hindleg ataxia and slight hypoactivity | 5 | No overt toxic responses | greatly reduced | forming large quantities of the monoamidine-monoamidoxime derivative, and smaller amounts of pentamidine |  |  |  | observed acute toxicity after single intravenous injection ([2]; normal rats, bolus injections above 120 μmol/kg): severe dyspnea and profound hypoactivity; observed acute toxicity after single intravenous injection ([2]; normal rats, from 20 to 60 μmol/kg): no observable adverse reactions; metabolism by 9000×g supernatants of homogenates of rat liver, kidney, lung and heart ([3]; FIG. 3A-3D): into its amidine analog pentamidine |
| NC(=NO)c1ccc(OCCCOc2ccc(C(N)=NO)cc2)cc1.O=C(O)/C=C\C(=O)O.O=C(O)/C=C\C(=O)O [Compound 5, 1,3-bis(4′-(4-hydroxyamidino)phenoxy)propanedi-hemimaleinate] | metabolized predominantly to the corresponding diamidine | significantly reduced compared to saline controls | 2.25 | 0.03 |  |  | No overt toxic responses | greatly reduced | metabolized similarly | most active | only minor ataxia and/or hypoactivity | 5 min | observed acute toxicity after single intravenous injection ([2]; normal rats, 20, 40 or 80 μmol/kg): no overt toxicity |
| COc1cc(C(N)=NO)ccc1OCCCOc1ccc(C(N)=NO)cc1OC.O=C(O)/C=C\C(=O)O.O=C(O)/C=C\C(=O)O [Compound 7, 1,3-bis(2′-methoxy-4′-(N-hydroxyamidino)phenoxy)propanedi-hemimaleinate] | metabolized predominantly to the corresponding diamidine | significantly reduced compared to saline controls | 3.71 | 0.03 | only very minor hypoactivity and dyspnea | 5 | No overt toxic responses | greatly reduced | metabolized similarly | most active | pronounced hypoactivity, dyspnea, cyanosis, and increased salivation and lacrimation | approximately 10 minutes | observed acute toxicity after single intravenous injection ([2]; normal rats, 20 or 40 μg/kg): no observable adverse effects |
| N=C(N)c1ccc(-c2ccc(-c3ccc(C(=N)N)cc3)o2)cc1 [Compound 9, 2,5-bis-[4-amidinophenyl]furan, reference compound] |  |  |  |  |  |  |  |  |  |  |  |  | activity on oral administration, furan series (in words) (Pneumocystis carinii [1]; immunosuppressed rat model, orally by gavage): significantly less; Toxicity, IV DOSING ([4]; 0.03 μmol/kg/day): 0; Toxicity, IV DOSING ([4]; 0.3 μmol/kg/day): 0; Toxicity, IV DOSING ([4]; 2.7 μmol/kg/day): 0; Toxicity, IV DOSING ([4]; 13.3 μmol/kg/day): 0; Toxicity, IV DOSING ([4]; 26.6 μmol/kg/day): +1; Toxicity, ORAL DOSING ([4]; 39.8 μmol/kg/day): 0; Toxicity, ORAL DOSING ([4]; 66.3 μmol/kg/day, larger = more severe): 0; activity and toxicity compared with pentamidine on intravenous dosage (Pneumocystis carinii [5]): more active and less toxic than pentamidine |
